Key:
HT-29 [1] = experiment: Cytotoxicity against human HT-29 cells assessed as growth inhibition after 48 hrs by sulforhodamine B assay; assay type: functional; details: HT-29, 48 h
SF-539 = experiment: Cytotoxicity against human SF539 cells assessed as growth inhibition after 48 hrs by sulforhodamine B assay; assay type: functional; details: SF-539, 48 h
Malme-3M = experiment: Cytotoxicity against human MALME-3M cells assessed as growth inhibition after 48 hrs by sulforhodamine B assay; assay type: functional
SK-MEL-2 = experiment: Cytotoxicity against human SK-MEL-2 cells assessed as growth inhibition after 48 hrs by sulforhodamine B assay; assay type: functional; details: SK-MEL-2, 48 h
UACC-257 = experiment: Cytotoxicity against human UACC257 cells assessed as growth inhibition after 48 hrs by sulforhodamine B assay; assay type: functional; details: UACC-257, 48 h
OVCAR-5 = experiment: Cytotoxicity against human OVCAR5 cells assessed as growth inhibition after 48 hrs by sulforhodamine B assay; assay type: functional; details: OVCAR-5, 48 h
ACHN = experiment: Cytotoxicity against human ACHN cells assessed as growth inhibition after 48 hrs by sulforhodamine B assay; assay type: functional
BT-549 [2] = experiment: Cytotoxicity against human BT549 cells assessed as growth inhibition after 48 hrs by sulforhodamine B assay; assay type: functional; details: BT-549, 48 h
MDA-MB-231 = experiment: Cytotoxicity against human MDA-MB-231 cells assessed as growth inhibition after 48 hrs by MTT assay; assay type: functional, cell-based; details: MDA-MB-231, 48 h
786-0 [3] = experiment: Cytotoxicity against human 786-0 cells assessed as cell growth at 0.01 uM after 48 hrs by sulforhodamine B assay relative to control; assay type: functional; details: 786-0, 48 h, read-out: Activity
NCI-H226 = experiment: Cytotoxicity against human NCI-H226 cells assessed as cell growth at 0.01 uM after 48 hrs by sulforhodamine B assay relative to control; assay type: functional; details: NCI-H226, 48 h, read-out: Activity
SN12C = experiment: Cytotoxicity against human SN12C cells assessed as cell growth at 0.01 uM after 48 hrs by sulforhodamine B assay relative to control; assay type: functional; details: read-out: Activity
BT-549 [4] = experiment: Cytotoxicity against human BT549 cells assessed as cell growth at 0.01 uM after 48 hrs by sulforhodamine B assay relative to control; assay type: functional; details: BT-549, 48 h, read-out: Activity
HL-60(TB) [5] = experiment: Cytotoxicity against human HL-60(TB) cells assessed as cell growth at 0.1 uM after 48 hrs by sulforhodamine B assay relative to control; assay type: functional; details: HL-60, 48 h, read-out: Activity
U-251 = experiment: Cytotoxicity against human U251 cells assessed as cell growth at 0.1 uM after 48 hrs by sulforhodamine B assay relative to control; assay type: functional; details: U-251, 48 h, read-out: Activity
M14 [6] = experiment: Cytotoxicity against human M14 cells assessed as cell growth at 0.1 uM after 48 hrs by sulforhodamine B assay relative to control; assay type: functional; details: M14, 48 h, read-out: Activity
NCI/ADR-RES = experiment: Cytotoxicity against human NCI/ADR-RES cells assessed as cell growth at 0.1 uM after 48 hrs by sulforhodamine B assay relative to control; assay type: functional; details: read-out: Activity
DU-145 = experiment: Cytotoxicity against human DU145 cells assessed as cell growth at 0.1 uM after 48 hrs by sulforhodamine B assay relative to control; assay type: functional; details: DU-145, 48 h, read-out: Activity
Hs-578T = experiment: Cytotoxicity against human Hs 578T cells assessed as cell growth at 0.1 uM after 48 hrs by sulforhodamine B assay relative to control; assay type: functional; details: read-out: Activity
CCRF-CEM = experiment: Cytotoxicity against human CCRF-CEM cells assessed as cell growth at 1 uM after 48 hrs by sulforhodamine B assay relative to control; assay type: functional; details: read-out: Activity
HOP-62 = experiment: Cytotoxicity against human HOP62 cells assessed as cell growth at 1 uM after 48 hrs by sulforhodamine B assay relative to control; assay type: functional; details: HOP-62, 48 h, read-out: Activity
HT-29 [7] = experiment: Cytotoxicity against human HT-29 cells assessed as cell growth at 1 uM after 48 hrs by sulforhodamine B assay relative to control; assay type: functional; details: HT-29, 48 h, read-out: Activity
M14 [8] = experiment: Cytotoxicity against human M14 cells assessed as cell growth at 1 uM after 48 hrs by sulforhodamine B assay relative to control; assay type: functional; details: M14, 48 h, read-out: Activity
SK-MEL-28 = experiment: Cytotoxicity against human SK-MEL-28 cells assessed as cell growth at 1 uM after 48 hrs by sulforhodamine B assay relative to control; assay type: functional; details: SK-MEL-28, 48 h, read-out: Activity
NCI-H522 [9] = experiment: Cytotoxicity against human NCI-H522 cells assessed as cell growth at 10 uM after 48 hrs by sulforhodamine B assay relative to control; assay type: functional; details: NCI-H522, 48 h, read-out: Activity
RXF 393 = experiment: Cytotoxicity against human RXF393 cells assessed as cell growth at 10 uM after 48 hrs by sulforhodamine B assay relative to control; assay type: functional; details: RXF 393, 48 h, read-out: Activity
HL-60(TB) [10] = experiment: Cytotoxicity against human HL-60(TB) cells assessed as cell growth at 100 uM after 48 hrs by sulforhodamine B assay relative to control; assay type: functional; details: HL-60, 48 h, read-out: Activity
RPMI-8226 = experiment: Cytotoxicity against human RPMI8226 cells assessed as cell growth at 100 uM after 48 hrs by sulforhodamine B assay relative to control; assay type: functional; details: RPMI-8226, 48 h, read-out: Activity
NCI-H23 = experiment: Cytotoxicity against human NCI-H23 cells assessed as cell growth at 100 uM after 48 hrs by sulforhodamine B assay relative to control; assay type: functional; details: NCI-H23, 48 h, read-out: Activity
NCI-H522 [11] = experiment: Cytotoxicity against human NCI-H522 cells assessed as cell growth at 100 uM after 48 hrs by sulforhodamine B assay relative to control; assay type: functional; details: NCI-H522, 48 h, read-out: Activity
SW-620 = experiment: Cytotoxicity against human SW620 cells assessed as cell growth at 100 uM after 48 hrs by sulforhodamine B assay relative to control; assay type: functional; details: SW-620, 48 h, read-out: Activity
M14 [12] = experiment: Cytotoxicity against human M14 cells assessed as cell growth at 100 uM after 48 hrs by sulforhodamine B assay relative to control; assay type: functional; details: M14, 48 h, read-out: Activity
IGROV-1 = experiment: Cytotoxicity against human IGROV1 cells assessed as cell growth at 100 uM after 48 hrs by sulforhodamine B assay relative to control; assay type: functional; details: IGROV-1, 48 h, read-out: Activity
786-0 [13] = experiment: Cytotoxicity against human 786-0 cells assessed as cell growth at 100 uM after 48 hrs by sulforhodamine B assay relative to control; assay type: functional; details: 786-0, 48 h, read-out: Activity

Work on `COc1ccc(C(=O)/C=C/c2cc(-c3ccc(OC)c(OC)c3)n[nH]2)cc1OC` yielded a GI50 (HT-29 [1]) of 1380 nM, a TGI (HT-29 [1]) of 4950 nM and a GI50 (SF-539) of 525 nM. The TGI (SF-539) was 2540 nM, the GI50 (Malme-3M) was 2590 nM and the TGI (Malme-3M) was 6210 nM. It also gave a GI50 (SK-MEL-2) of 2460 nM, a TGI (SK-MEL-2) of 5170 nM and a GI50 (UACC-257) of 2160 nM. It also gave a TGI (UACC-257) of 5020 nM, a GI50 (OVCAR-5) of 1760 nM and a TGI (OVCAR-5) of 5240 nM. The GI50 (ACHN) was 1590 nM, the TGI (ACHN) was 3830 nM and the GI50 (BT-549 [2]) was 1440 nM. It also gave a TGI (BT-549 [2]) of 2920 nM, an IC50 (MDA-MB-231) of 1100 nM and a growth at 0.01 µM (786-0 [3]) of 92%. It also gave a growth at 0.01 µM (NCI-H226) of 94%, a growth at 0.01 µM (SN12C) of 101% and a growth at 0.01 µM (BT-549 [4]) of 84%. For the same compound, the growth at 0.1 µM (HL-60(TB) [5]) was 101%, the growth at 0.1 µM (U-251) was 89% and the growth at 0.1 µM (M14 [6]) was 94%. For the same compound, the growth at 0.1 µM (NCI/ADR-RES) was 102%, the growth at 0.1 µM (DU-145) was 105% and the growth at 0.1 µM (Hs-578T) was 91%. The growth at 1 µM (CCRF-CEM) was 15%, the growth at 1 µM (HOP-62) was 73% and the growth at 1 µM (HT-29 [7]) was 63%. For the same compound, the growth at 1 µM (M14 [8]) was 92%, the growth at 1 µM (SK-MEL-28) was 81% and the growth at 10 µM (NCI-H522 [9]) was -56%. It also gave a growth at 10 µM (RXF 393) of -84%, a growth at 100 µM (HL-60(TB) [10]) of 1% and a growth at 100 µM (RPMI-8226) of -38%. For the same compound, the growth at 100 µM (NCI-H23) was -21%, the growth at 100 µM (NCI-H522 [11]) was -75% and the growth at 100 µM (SW-620) was -27%. For the same compound, the growth at 100 µM (M14 [12]) was -51%, the growth at 100 µM (IGROV-1) was -2% and the growth at 100 µM (786-0 [13]) was -32%.

From ChEMBL document CHEMBL4138123, “Design, synthesis and biological evaluation of novel pyrazolochalcones as potential modulators of PI3K/Akt/mTOR pathway and inducers of apoptosis in breast cancer cells” (Eur J Med Chem, 2017)
